According to patent US20250177396A1, “POLO-LIKE KINASE 4 (PLK4) INHIBITORS, PHARMACEUTICAL COMPOSITIONS, METHODS OF PREPARATION AND USES THEREOF” (Repare Therapeutics Inc., priority 2022, published 2025):

molecular target: T1, PLK4 (Homo sapiens, UniProt O00444); test: PLK4 NanoBRET target engagement assay; assay type: binding; conditions: HEK293 T cells transfected with PLK4 NanoLuc fusion vector; K-5 tracer; 2 hrs incubation
T1 construct: expressed in transfected cells; host or cells: HEK293 T cells (ATCC CRL-3216)
T1 sequence (O00444 1-970): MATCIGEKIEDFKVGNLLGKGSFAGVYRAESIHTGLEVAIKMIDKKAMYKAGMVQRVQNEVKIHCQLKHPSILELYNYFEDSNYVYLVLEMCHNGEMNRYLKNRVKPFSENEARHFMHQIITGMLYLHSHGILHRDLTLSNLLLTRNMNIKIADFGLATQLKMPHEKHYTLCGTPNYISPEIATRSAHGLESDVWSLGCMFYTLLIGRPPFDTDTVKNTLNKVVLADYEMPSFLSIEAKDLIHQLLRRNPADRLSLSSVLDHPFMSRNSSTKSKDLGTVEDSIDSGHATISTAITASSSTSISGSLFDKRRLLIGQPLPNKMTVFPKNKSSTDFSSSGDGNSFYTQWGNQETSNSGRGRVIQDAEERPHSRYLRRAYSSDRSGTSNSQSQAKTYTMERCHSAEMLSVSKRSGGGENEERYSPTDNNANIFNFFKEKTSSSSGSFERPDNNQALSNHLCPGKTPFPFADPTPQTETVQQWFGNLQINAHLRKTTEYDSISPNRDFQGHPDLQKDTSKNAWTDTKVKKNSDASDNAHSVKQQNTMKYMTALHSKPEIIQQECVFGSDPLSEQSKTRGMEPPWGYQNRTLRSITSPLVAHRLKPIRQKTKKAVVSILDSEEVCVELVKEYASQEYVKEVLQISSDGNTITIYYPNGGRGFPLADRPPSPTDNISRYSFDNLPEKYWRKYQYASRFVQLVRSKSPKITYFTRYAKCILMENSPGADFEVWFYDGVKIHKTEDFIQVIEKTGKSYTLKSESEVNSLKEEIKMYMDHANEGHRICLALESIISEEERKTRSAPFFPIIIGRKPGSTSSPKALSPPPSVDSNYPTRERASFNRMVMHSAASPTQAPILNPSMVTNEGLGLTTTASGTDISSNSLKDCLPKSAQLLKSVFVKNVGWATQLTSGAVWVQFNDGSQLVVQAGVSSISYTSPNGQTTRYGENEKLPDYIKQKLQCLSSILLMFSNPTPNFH
Protocol: To determine the affinity of Compounds described herein in the PLK4 NanoBRET target engagement assay, HEK293 T cells (ATCC Product Number CRL-3216) are first transfected with the PLK4 NanoLuc fusion vector DNA and Transfection carrier DNA using the Fugene HD Transfection reagent in Opti-MEM No Phenol Red buffer. After an overnight incubation in a 37° C./5% CO2 incubator, the transfected HEK293 T cells are trypsinized, counted, and resuspended in Opti-MEM No Phenol Red buffer at a concentration of 200000 cells/mL. White 96-well plates are then plated with 85 μL of cells (17000 cells/well) to which 5 μL of the 20×K-5 tracer solution diluted in tracer dilution buffer is added. Finally, 10 μL of the 10× compounds are added and the plates and then incubated in a 37° C./5% CO2 incubator for 2 hrs. After the incubation, a 50 uL 3× solution of the substrate/inhibitor mix is added to the cells. The plate is then transferred in the Envision plate reader where the Acceptor emission (610 nm) and the Donor emission (450 nm) are measured.
The IC50 of compounds is determined as follows: • 1. The ratio between the Acceptor emission (610 nm)/Donor emission (450 nm) is calculated. • 2. This ratio is then multiplied by 1000 to obtain the mBRET units (multiplying by 1000 is an arbitrary step that simply makes the data easier to interpret; it has no impact on the data set itself) • 3. The mBRET units are then used in Scigilian Analyze software (https://analyze.scigilian.io) to determine the IC50 value using a 4-parameter fit analysis.

Row | Structure (SMILES) | IC50 [nM]
1 | COc1c(Nc2cc(C)[nH]n2)nc(N(C)c2ccc(S(C)(=O)=O)cc2F)c(C#N)c1-c1cnn(C)c1 [Compound 98] | 2000
2 | CCCS(=O)(=O)c1ccc(N(C)c2nc(Nc3cc(C)[nH]n3)c(OC)c(-c3cnn(C)c3)n2)cc1 [Compound 51] | 220
3 | Cc1cc(Nc2nc(N(C)c3c(F)cc(S(C)(=O)=O)cc3F)nc(-c3cn(C)c(C(C)(C)O)n3)c2C2CC2)n[nH]1 [Compound 323] | 10
4 | COc1c(Nc2cc(C)[nH]n2)nc(N(C)c2c(F)cc(S(C)(=O)=O)cc2F)nc1-c1cnn(C)c1 [Compound 8, N^2-(2,6-difluoro-4-(methylsulfonyl)phenyl)-5-methoxy-N^2-methyl-N^4-(5-methyl-1H-pyrazol-3-yl)-6-(1-methyl-1H-pyrazol-4-yl)pyrimidine-2,4-diamine] | 6
5 | COc1c(Nc2cc(C)[nH]n2)nc(Oc2c(F)cc(Br)cc2F)nc1-c1cnn(C)c1 [Compound 29] | 1300
6 | Cc1cc(Nc2nc(N(C)c3cc(F)c(S(C)(=O)=O)cc3F)nc(-c3cn(C)cn3)c2C2CC2)n[nH]1 [Compound 125, 5-cyclopropyl-N^2-(2,5-difluoro-4-(methylsulfonyl)phenyl)-N^2-methyl-6-(1-methyl-1H-imidazol-4-yl)-N^4-(5-methyl-1H-pyrazol-3-yl)pyrimidine-2,4-diamine] | 7
7 | COC(C)(C)c1c(-c2nc(N(C)c3c(F)cc(S(C)(=O)=O)cc3F)nc(Nc3cc(C)[nH]n3)c2C2CC2)cnn1C [Compound 311] | 14
8 | Cc1cc(Nc2nc(N(C)c3c(F)cc(S(C)(=O)=O)cc3F)nc(-c3cn(C)c(C(C)O)n3)c2C2CC2)n[nH]1 (stereo not shown) [Compound 217] | 19
9 | COc1c(Nc2cc(C)[nH]n2)nc(N(C)c2ccc(Oc3nccs3)cc2)nc1-c1cnn(C)c1 [Compound 69] | 700
10 | Cc1cc(Nc2nc(N(C)c3c(F)cc(S(C)(=O)=O)cc3F)nc(-c3c(C)ncn3C)c2C2CC2)n[nH]1 [Compound 129] | 57
11 | Cc1cc(Nc2nc(N(C)c3c(F)cc(S(C)(=O)=O)cc3F)nc(-c3cc(C(=O)N(C)C)n(C)n3)c2C2CC2)n[nH]1 [Compound 319] | 5
12 | Cc1cc(Nc2nc(N(C)c3c(F)cc(S(C)(=O)=O)cc3F)nc(-c3cnn4c3CC(C)(C)C4)c2C2CC2)n[nH]1 [Compound 176] | 13
13 | Cc1cc(Nc2nc(N(C)c3c(F)cc(S(C)(=O)=O)cc3F)nc(-c3cn4c(n3)C(O)CC4)c2C2CC2)n[nH]1 (stereo not shown) [Compound 234] | 49
14 | Cc1cc(Nc2nc(N(C)c3c(F)cc(S(C)(=O)=O)cc3F)nc(-c3oc(C)nc3C)c2C2CC2)n[nH]1 [Compound 151] | 7
15 | COc1c(Nc2cc(C)[nH]n2)nc(N(C)c2ccc([S+](C)[O-])cc2)nc1-c1cnn(C)c1 (stereo not shown) [Compound 79] | 2300
16 | COc1c(Nc2cc(C)[nH]n2)nc(N(C)c2ccc(CN(C(C)=O)c3ccccc3)cc2F)nc1-c1cnn(C)c1 [Compound 50] | 770
17 | Cc1cc(Nc2nc(N(C)c3ccc(S(C)(=O)=O)cc3F)nc(-c3cnn4cccnc34)c2C2CC2)n[nH]1 [Compound 108, 5-cyclopropyl-N^2-(2-fluoro-4-(methylsulfonyl)phenyl)-N^2-methyl-N^4-(5-methyl-1H-pyrazol-3-yl)-6-(pyrazolo[1,5-a]pyrimidin-3-yl)pyrimidine-2,4-diamine] | 16
18 | Cc1cc(Nc2nc(N(C)c3c(F)cc(S(C)(=O)=O)cc3F)nc(-c3cnn(CCS(C)(=O)=O)c3C)c2C2CC2)n[nH]1 [Compound 227] | 5
19 | Cc1cc(Nc2nc(N(C)c3c(F)cc(S(C)(=O)=O)cc3F)nc(-c3cn(CCS(C)(=O)=O)nc3C)c2C2CC2)n[nH]1 [Compound 226] | 6
20 | Cc1cc(Nc2nc(N(C)c3c(F)cc(S(C)(=O)=O)cc3F)nc(-c3cc4n(C)c(=O)ccn4n3)c2C2CC2)n[nH]1 [Compound 245] | 5

Row | Structure (SMILES) | IC50 [nM]
21 | COc1c(Nc2cc(C)[nH]n2)nc(Sc2ccc(S(C)(=O)=O)cc2F)c(C#N)c1-c1cnn(C)c1 [Compound 101] | 120
22 | COc1c(Nc2cc(C)[nH]n2)nc(Oc2ccc(Br)c(C#N)c2)nc1-c1cnn(C)c1 [Compound 36] | 7000
23 | Cc1cc(Nc2nc(N(C)c3c(F)cc(S(C)(=O)=O)cc3F)nc(-c3cnn(C)c3N3CCCC3=O)c2C2CC2)n[nH]1 [Compound 304] | 8
24 | COc1c(Nc2cc(C)[nH]n2)nc(N(Cc2ccc(F)cc2)c2ccc(S(C)(=O)=O)cc2F)nc1-c1cnn(C)c1 [Compound 4, N^2-(2-fluoro-4-(methylsulfonyl)phenyl)-N^2-(4-fluorobenzyl)-5-methoxy-N^4-(5-methyl-1H-pyrazol-3-yl)-6-(1-methyl-1H-pyrazol-4-yl)pyrimidine-2,4-diamine] | 720
25 | Cc1cc(Nc2nc(N(C)c3c(F)cc(S(C)(=O)=O)cc3F)nc(-c3ncn(C)c3C(=O)N(C)C)c2C2CC2)n[nH]1 [Compound 274] | 3100
26 | CC(=O)c1c(-c2nc(N(C)c3c(F)cc(S(C)(=O)=O)cc3F)nc(Nc3cc(C)[nH]n3)c2C2CC2)cnn1C [Compound 307] | 19
27 | Cc1cc(Nc2nc(N(C)c3c(F)cc(S(C)(=O)=O)cc3F)nc(Nc3cnn(C)c3)c2C2CC2)n[nH]1 [Compound 334] | 37
28 | Cc1cc(Nc2nc(N(C)c3c(F)cc(S(C)(=O)=O)cc3F)nc(-c3cc[nH]n3)c2C2CC2)n[nH]1 [Compound 106] | 6
29 | Cc1cc(Nc2nc(N(C)c3c(F)cc(S(C)(=O)=O)c(Cl)c3F)nc(-c3cnn(C)c3)c2C2CC2)n[nH]1 [Compound 120] | 19
30 | Cc1cc(Nc2nc(N(C)c3c(F)cc(S(C)(=O)=O)cc3F)nc(-c3cn(C4CC(O)C4)cn3)c2C2CC2)n[nH]1 (stereo not shown) [Compound 257] | 33
31 | Cc1cc(Nc2nc(N(C)c3c(F)cc(S(C)(=O)=O)cc3F)nc(-c3c[nH]nc3C)c2C2CC2)n[nH]1 [Compound 122] | 8
32 | Cc1cc(Nc2nc(N(C)c3c(F)cc(S(C)(=O)=O)cc3F)nc(-c3ccn(C)n3)c2C2CC2)n[nH]1 [Compound 13, 5-cyclopropyl-N^2-(2,6-difluoro-4-(methylsulfonyl)phenyl)-N^2-methyl-6-(1-methyl-1H-pyrazol-3-yl)-N^4-(5-methyl-1H-pyrazol-3-yl)pyrimidine-2,4-diamine] | 5
33 | COC(C)c1nc(-c2nc(N(C)c3c(F)cc(S(C)(=O)=O)cc3F)nc(Nc3cc(C)[nH]n3)c2C2CC2)cn1C (stereo not shown) [Compound 244] | 10
34 | COc1c(Nc2cc(C)[nH]n2)nc(N(C)c2ccc(CN(C)C(=O)c3ccccc3)cc2F)nc1-c1cnn(C)c1 [Compound 52] | 290
35 | Cc1cc(Nc2nc(N(C)c3c(F)cc(S(C)(=O)=O)cc3F)nc(-c3cnn(C(F)F)c3)c2C2CC2)n[nH]1 [Compound 131] | 9
36 | Cc1cc(Nc2nc(Nc3ccc(S(C)(=O)=O)cc3F)nc(-c3cn(C)cn3)c2C2CC2)n[nH]1 [Compound 16, 5-cyclopropyl-N^2-(2-fluoro-4-(methylsulfonyl)phenyl)-6-(1-methyl-1H-imidazol-4-yl)-N^4-(5-methyl-1H-pyrazol-3-yl)pyrimidine-2,4-diamine] | 200
37 | Cc1cc(Nc2nc(N(C)c3c(F)cc(S(C)(=O)=O)cc3F)nc(-c3ncnn3C)c2C2CC2)n[nH]1 [Compound 216] | 190
38 | COc1c(Nc2cc(C)[nH]n2)nc(N(C)c2ccc(-c3ccnn3C)cc2)nc1-c1cnn(C)c1 [Compound 59] | 280
39 | COc1c(Nc2cc(C)[nH]n2)nc(N(c2ccc(S(C)(=O)=O)cc2F)C(C)C)nc1-c1cnn(C)c1 [Compound 84] | 140
40 | COc1c(Nc2cc(C)[nH]n2)nc(Oc2ccc(S(C)(=O)=O)cc2Cl)nc1-c1cnn(C)c1 [Compound 34] | 900
